Measured values published in patent US8642601B2, “Inhibitors of JNK” (Roche Palo Alto LLC, priority 2010, dated 2014).
pIC50: −log10 of the molar value. Structures can show the parent of a compound that is named as a salt.

System: not given
Assay: not given
Settings: not given

Row | melting point [°C] | Structure (SMILES)
1 | 225 | CCN1CCN(C(=O)[C@H]2CC[C@H](Nc3nccc(-n4ccc5c(OCC6CCS(=O)(=O)C6)cccc54)n3)CC2)C[C@H]1C (stereo partly drawn) (as salt: HCl) [Compound 3, (4-{4-[4-(1,1-Dioxo-tetrahydro-1λ^6-thiophen-3-ylmethoxy)-indol-1-yl]-pyrimidin-2-ylamino}-cyclohexyl)-((R)-4-ethyl-3-methyl-piperazin-1-yl)-methanone]
2 | 198 to 204 | CCN1CCN(C(=O)[C@H]2CC[C@H](Nc3nccc(-n4ccc5c(OCC6CCS(=O)(=O)C6)cccc54)n3)CC2)C[C@@H]1C (stereo partly drawn) (as salt: HCl) [Compound 9, (4-{4-[4-(1,1-Dioxo-tetrahydro-1λ^6-thiophen-3-ylmethoxy)-indol-1-yl]-pyrimidin-2-ylamino}-cyclohexyl)-((S)-4-ethyl-3-methyl-piperazin-1-yl)-methanone]
3 | 140 to 142 | CCCN1CC[C@@H](NC(=O)[C@H]2CC[C@H](Nc3nccc(-n4ccc5c(OCCCS(C)(=O)=O)cccc54)n3)CC2)C1 (as salt: HCl) [Compound 11, 4{4-[4-(3-Methanesulfonyl-propoxy)-indol-1-yl]-pyrimidin-2-ylamino}-cyclohexanecarboxylic acid ((R)-1-propyl-pyrrolidin-3-yl)-amide]
4 | 160 to 162 | CCN1CC[C@H](NC(=O)[C@H]2CC[C@H](Nc3nccc(-n4ccc5c(OCCCS(C)(=O)=O)cccc54)n3)CC2)C1 (as salt: HCl) [Compound 13, 4-{4-[4-(3-Methanesulfonyl-propoxy)-indol-1-yl]-pyrimidin-2-ylamino}-cyclohexanecarboxylic acid ((S)-1-ethyl-pyrrolidin-3-yl)-amide]

System: T1, JNK
T1 construct: Human JNK2α2 assay contains 1 nM enzyme; Human JNK1α1 assay contains 2 nM enzyme
Assay: JNK Assay in vitro (phosphorylation of GST-ATF2 (19-96) with [γ-33P] ATP)
Assay type: biochemical
Settings: JNK isoform not stated for Table 1 (method describes human JNK1α1, JNK2α2, JNK3); Km concentrations of ATP and substrate
Method: JNK activity was measured by phosphorylation of GST-ATF2 (19-96) with [γ-^33P] ATP. The enzyme reaction was conducted at Km concentrations of ATP and the substrate at final volume of 40 μl in buffer containing 25 mM HEPES, pH 7.5, 2 mM dithiothreitol, 150 mM NaCl, 20 mM MgCl2, 0.001% Tween® 20, 0.1% BSA and 10% DMSO. Human JNK2α2 assay contains 1 nM enzyme, 1 μM ATF2, 8 μM ATP with 1 uCi [γ-^33P] ATP. Human JNK1α1 assay contains 2 nM enzyme, 1 μM ATF2, 6 μM ATP with 1 μCi [γ-^33P] ATP. Human JNK3 (Upstate Biotech #14-501M) assay contains 2 nM enzyme, 1 μM ATF2, 4 μM ATP with 1 μCi [γ-^33P] ATP. The enzyme assay was carried out in the presence or absence of several compound concentrations. JNK and compound were pre-incubated for 10 min., followed by initiation of the enzymatic reaction by adding ATP and the substrate. The reaction mixture was incubated at 30° C. for 30 min. At the end of incubation, the reaction was terminated by transferring 25 μl of the reaction mixture to 150 μl of 10% glutathione Sepharose® slurry (Amersham #27-4574-01) containing 135 mM EDTA. The reaction product was captured on the affinity resin, and washed on a filtration plate (Millipore, MABVNOB50) with phosphate buffered saline for six times to remove free radionucleotide. The incorporation of ^33P into ATF2 was quantified on a microplate scintillation counter (Packard Topcount). Compound inhibition potency on JNK was measured by IC50 value generated from ten concentration inhibition curves fitted into the 3-parameter model: % inhibition=Maximum/(1+(IC50/[Inhibitor])^slope). Data were analyzed on Microsoft Excel for parameter estimation.

Row | Structure (SMILES) | pIC50
5 | CCCN1CCC[C@H](NC(=O)[C@H]2CC[C@H](Nc3nccc(-n4ccc5c(OCCCS(C)(=O)=O)cccc54)n3)CC2)C1 (stereo in doubt) [Compound 14, 4-{4-[4-(3-Methanesulfonyl-propoxy)-indol-1-yl]-pyrimidin-2-ylamino}-cyclohexanecarboxylic acid ((R)-1-propyl-piperidin-3-yl)-amide] | 7.05
6 | CCN1CCC[C@@H](NC(=O)[C@H]2CC[C@H](Nc3nccc(-n4ccc5c(OCCCS(C)(=O)=O)cccc54)n3)CC2)C1 (stereo in doubt) [Compound 17, 4-{4-[4-(3-Methanesulfonyl-propoxy)-indol-1-yl]-pyrimidin-2-ylamino}-cyclohexanecarboxylic acid ((S)-1-ethyl-piperidin-3-yl)-amide] | 6.94
7 | CCCN1CC[C@@H](NC(=O)[C@H]2CC[C@H](Nc3nccc(-n4ccc5c(OCCCS(C)(=O)=O)cccc54)n3)CC2)C1 [Compound 11, 4{4-[4-(3-Methanesulfonyl-propoxy)-indol-1-yl]-pyrimidin-2-ylamino}-cyclohexanecarboxylic acid ((R)-1-propyl-pyrrolidin-3-yl)-amide] | 6.78
8 | CCN1CC[C@H](NC(=O)[C@H]2CC[C@H](Nc3nccc(-n4ccc5c(OCCCS(C)(=O)=O)cccc54)n3)CC2)C1 [Compound 13, 4-{4-[4-(3-Methanesulfonyl-propoxy)-indol-1-yl]-pyrimidin-2-ylamino}-cyclohexanecarboxylic acid ((S)-1-ethyl-pyrrolidin-3-yl)-amide] | 6.47
9 | CS(=O)(=O)CCCOc1cccc2c1ccn2-c1ccnc(N[C@H]2CC[C@H](C(=O)N3C[C@@H]4C[C@@H]3CN4)CC2)n1 [Compound 21, (1R,4S)-2,5-Diaza-bicyclo[2.2.1]hept-2-yl-(4-{4-[4-(3-methanesulfonyl-propoxy)-indol-1-yl]-pyrimidin-2-ylamino}-cyclohexyl)-methanone] | 6.84
10 | CN1C2CCC1CN(C(=O)[C@H]1CC[C@H](Nc3nccc(-n4ccc5c(OCCCS(C)(=O)=O)cccc54)n3)CC1)C2 [Compound 22] | 7.00
11 | CCOC1CC2CCC(C1)N2C(=O)[C@H]1CC[C@H](Nc2nccc(-n3ccc4c(OCCCS(C)(=O)=O)cccc43)n2)CC1 (some centres unmarked) [Compound 26, (3-Ethoxy-8-aza-bicyclo[3.2.1]oct-8-yl)-(4-{4-[4-(3-methanesulfonyl-propoxy)-indol-1-yl]-pyrimidin-2-ylamino}-cyclohexyl)-methanone; compound with formic acid] | 7.05
12 | CC1(C)CN(C(=O)[C@H]2CC[C@H](Nc3nccc(-n4ccc5c(OCC6CCS(=O)(=O)C6)cccc54)n3)CC2)CCN1 (some centres unmarked) [Compound 28, (3,3-Dimethyl-piperazin-1-yl)-(4-{4-[4-(1,1-dioxo-tetrahydro-1λ^6-thiophen-3-ylmethoxy)-indol-1-yl]-pyrimidin-2-ylamino}-cyclohexyl)-methanone] | 7.01
13 | CCN1CCCC(NC(=O)[C@H]2CC[C@H](Nc3nccc(-n4ccc5c(OCC6CCS(=O)(=O)C6)cccc54)n3)CC2)C1 (some centres unmarked) [Compound 29, 4-{4-[4-(1,1-Dioxo-tetrahydro-1λ^6-thiophen-3-ylmethoxy)-indol-1-yl]-pyrimidin-2-ylamino}-cyclohexanecarboxylic acid (1-ethyl-piperidin-3-yl)-amide] | 7.03
14 | CCN1CCC[C@@H]1CNC(=O)[C@H]1CC[C@H](Nc2nccc(-n3ccc4c(OCCCS(C)(=O)=O)cccc43)n2)CC1 [Compound 31, 4-{4-[4-(3-Methanesulfonyl-propoxy)-indol-1-yl]-pyrimidin-2-ylamino}-cyclohexanecarboxylic acid ((R)-1-ethyl-pyrrolidin-2-ylmethyl)-amide] | 7.01

More lines, now with the values ahead:

Row | pIC50 | Structure (SMILES)
15 | 7.07 | CCN1CCC[C@H]1CNC(=O)[C@H]1CC[C@H](Nc2nccc(-n3ccc4c(OCCCS(C)(=O)=O)cccc43)n2)CC1 [Compound 30, 4-{4-[4-(3-Methanesulfonyl-propoxy)-indol-1-yl]-pyrimidin-2-ylamino}-cyclohexanecarboxylic acid ((S)-1-ethyl-pyrrolidin-2-ylmethyl)-amide]
16 | 7.09 | CCN1CCCC1CNC(=O)[C@H]1CC[C@H](Nc2nccc(-n3ccc4c(OCCCS(C)(=O)=O)cccc43)n2)CC1 (some centres unmarked) [Compound 20, 4-{4-[4-(3-Methanesulfonyl-propoxy)-indol-1-yl]-pyrimidin-2-ylamino}-cyclohexanecarboxylic acid (1-ethyl-pyrrolidin-2-ylmethyl)-amide]
17 | 7.10 | CN(CC1CCCCN1C)C(=O)[C@H]1CC[C@H](Nc2nccc(-n3ccc4c(OCCCS(C)(=O)=O)cccc43)n2)CC1 (some centres unmarked) [Compound 19, 4-{4-[4-(3-Methanesulfonyl-propoxy)-indol-1-yl]-pyrimidin-2-ylamino}-cyclohexanecarboxylic acid methyl-(1-methyl-piperidin-2-ylmethyl)-amide]
18 | 7.13 | CCOC(=O)[C@@H]1CCCN(C(=O)[C@H]2CC[C@H](Nc3nccc(-n4ccc5c(OCCCS(C)(=O)=O)cccc54)n3)CC2)C1 [Compound 2, (R)-1-(4-{4-[4-(3-Methanesulfonyl-propoxy)-indol-1-yl]-pyrimidin-2-ylamino}-cyclohexanecarbonyl)-piperidine-3-carboxylic acid ethyl ester]
19 | 7.22 | C[C@H]1CN(C(=O)[C@H]2CC[C@H](Nc3nccc(-n4ncc5c(OCC6CCS(=O)(=O)C6)cccc54)n3)CC2)CCN1 (stereo partly drawn) [Compound 27, (4-{4-[4-(1,1-Dioxo-tetrahydro-1λ^6-thiophen-3-ylmethoxy)-indazol-1-yl]-pyrimidin-2-ylamino}-cyclohexyl)-((S)-3-methyl-piperazin-1-yl)-methanone]
20 | 7.22 | C[C@@H]1CN(C(=O)[C@H]2CC[C@H](Nc3nccc(-n4ncc5c(OCCCS(C)(=O)=O)cccc54)n3)CC2)CCN1 [Compound 24, (4-{4-[4-(3-Methanesulfonyl-propoxy)-indazol-1-yl]-pyrimidin-2-ylamino}-cyclohexyl)-((R)-3-methyl-piperazin-1-yl)-methanone]
21 | 7.34 | CCN1CCN(C(=O)[C@H]2CC[C@H](Nc3nccc(-n4ccc5c(OCC6CCS(=O)(=O)C6)cccc54)n3)CC2)C[C@H]1C (stereo partly drawn) [Compound 3, (4-{4-[4-(1,1-Dioxo-tetrahydro-1λ^6-thiophen-3-ylmethoxy)-indol-1-yl]-pyrimidin-2-ylamino}-cyclohexyl)-((R)-4-ethyl-3-methyl-piperazin-1-yl)-methanone]
22 | 7.34 | C[C@H]1CN(C(=O)[C@H]2CC[C@H](Nc3nccc(-n4ncc5c(OCC6CCS(=O)(=O)C6)cccc54)n3)CC2)CCN1 (stereo partly drawn) [Compound 25, (4-{4-[4-(1,1-Dioxo-tetrahydro-1λ^6-thiophen-3-ylmethoxy)-indazol-1-yl]-pyrimidin-2-ylamino}-cyclohexyl)-((S)-3-methyl-piperazin-1-yl)-methanone]
23 | 7.71 | CCN1CCN(C(=O)[C@H]2CC[C@H](Nc3nccc(-n4ccc5c(OCC6CCS(=O)(=O)C6)cccc54)n3)CC2)C[C@@H]1C (stereo partly drawn) [Compound 9, (4-{4-[4-(1,1-Dioxo-tetrahydro-1λ^6-thiophen-3-ylmethoxy)-indol-1-yl]-pyrimidin-2-ylamino}-cyclohexyl)-((S)-4-ethyl-3-methyl-piperazin-1-yl)-methanone]
